How the values were obtained:
Pan02 tumors [1] = test: tumor growth inhibition, Pan02 tumors in C57BL/6 mice; format: in vivo, mouse
Procedure: (§1) 6 to 8 week old immunocompetent or immunocompromised mice (C57BL/6/Nude) were injected subcutaneously with 2×10^6 Pan02 (mouse pancreatic cell line) or 5×10^6 Panc1 (human pancreatic cell line) tumor cells under the right shoulder. Tumor volume was measured every 2-3 days a week to monitor tumor growth. Dosing was initiated when the tumors reached about 200 mm^3. For tumor growth inhibition studies, animals were randomized and assigned to different cohorts and subjected to dosing cycles. KRAS1-formulated LNP (“KRAS/LNP”) or Placebo (scrambled KRAS dsRNAi) formulated LNP was given intravenously via lateral tail vein at a total volume of 10 ml/kg. Immuno-modulatory agents (CSF1 antibody, TGF-β inhibitor, or checkpoint inhibitors) were given intraperitoneally or orally at a volume of 10 ml/kg. Trametinib (MEK inhibitor) was given orally at a total volume of 10 ml/kg.
Mouse pancreatic cell line Pan02 was obtained from NCI, and human pancreatic cell line Panc1 cells were obtained from ATCC (Manassas, Va.) and grown in RPMI/DMEM medium supplemented with 10% FBS. Pan02 is a murine PDAC cell line with KRAS G12D mutation. Panc1 is a human PDAC cell line with KRAS […] mutation.
To see if the KRAS knockdown observed could be translated into growth inhibition, Pan02 tumors were implanted as described above, and when they reached the right sizes (e.g., about 200 mm^3), they were sorted and treated with KRAS/LNP or Placebo/LNP (cKras) at 10 mpk once a week for 3 weeks, and the tumor growth was monitored.

Pan02 tumors [2] = test: qPCR of tumor microenvironment and stromal activation marker mRNAs in Pan02 tumors; format: in vivo, mouse
Procedure: To see if a single KRAS/LNP treatment would lead to modulation of the tumor microenvironment, samples from the study described in Example 3 (FIGS. 5A-B) were analyzed for certain T-cell markers (CD8 and FoxP3) and chemokines (CXCL1). FoxP3 is a marker for immunosuppressive T cells (Tregs), which play an important role in regulating or suppressing other cells of the immune system. CXCL1 is a chemokine that actively recruits suppressive molecules such as Tregs and myeloid-derived suppressor cells to the tumor microenvironment.
To see if continuous KRAS inhibition would lead to modulation of the tumor microenvironment, Pan02 tumors from the efficacy study described in Example 3 (FIG. 6) were collected 24 hours after the last dose and subjected to qPCR to measure mRNAs of immune cell markers (CD8, FoxP3), immune suppressive cytokines (CXCL1, CXCL5, and IL10), immune checkpoints (PD-L1) or stromal activation markers (TGF-0, Axin2, ROBO1, and CSF3). […] This in turn led to down-regulation of several key suppressive molecules (FoxP3, CXCL1, and CXCL5). […]
A similar study was repeated in Pan02 tumors as well. […] In this case, tumors were collected and analyzed for the mRNA markers that contribute to modulation of the tumor microenvironment and stromal activation.

Pan02 tumors [3] = test: FoxP3 and CD8 immunohistochemistry of Pan02 tumors; format: in vivo, mouse; settings: KRAS DsiRNA combined with an MEK inhibitor
Cd274 (PD-L1) mRNA = test: mRNA analysis of Cd274 (PD-L1) in Panc1 tumors; format: in vivo, human; settings: MEKi+KRAS DsiRNA treatment
Procedure: (§2) To see how trametinib performed in human PDAC, Panc1 tumors were implanted as described above and treated with trametinib (3 mg/kg/dose) as shown in FIG. 12A. Tumor measurements were taken throughout the entire study period to monitor the tumor growth. […] Tumors were collected before and after KRAS/LNP treatments for mRNA analysis.

KRAS = test: mRNA analysis of KRAS in trametinib-resistant Panc1 tumors; format: in vivo, human; settings: trametinib-resistant Panc1 tumors after KRAS/LNP 5 mpk (qdx3), compared to resistant tumors without KRAS/LNP
Procedure: as §2

Panc1 tumors = test: tumor growth inhibition, human PDAC Panc1 tumors in nude mice; format: in vivo; settings: gemcitabine 50 mpk, several rounds
Procedure: as §1
Mouse pancreatic cell line Pan02 was obtained from NCI, and human pancreatic cell line Panc1 cells were obtained from ATCC (Manassas, Va.) and grown in RPMI/DMEM medium supplemented with 10% FBS. Pan02 is a murine PDAC cell line with KRAS G12D mutation. Panc1 is a human PDAC cell line with KRAS […] mutation. […]

KRAS mRNA [4] = test: KRAS mRNA expression in mouse tumor models using MIA PaCa2 and LS411N tumor cells; format: in vivo, human; settings: MIA PaCa 2 and LS411N tumor models, LNP-formulated tetraloops, 3 mg/kg daily for three days, 24 hours after
Procedure: FIG. 3B is a column scatter plot showing KRAS mRNA expression levels in a mouse tumor model using MIA PaCa2 tumor cells 24 hours after three-day daily administration of 3 mg/kg of KRAS nucleic acid inhibitor molecules as described in Example 1 and shown in FIG. 3A.
FIG. 3C is a column scatter plot showing KRAS mRNA expression levels in a mouse tumor model using MIA LS411N tumor cells 24 hours after three-day daily administration of 3 mg/kg of KRAS nucleic acid inhibitor molecules as described in Example 1 and shown in FIG. 3A.
The tetraloop sequences were tested in tumor models using MIA PaCa 2 and colon cancer LS411N cell lines. The best two from this screen (KRAS-465T and KRAS-446T) were then further modified to have a 4′-oxymethylphosphonate modification on the nucleotide at the 5′-end of the antisense strand (KRAS-465T/MOP and KRAS-446T/MOP). The sense strand of KRAS-465T/MOP contains SEQ ID NO: 13 (5′-[…]-3′), and the antisense strand of KRAS-465T/MOP contains SEQ ID NO: 14 (3′-[…]-5′, wherein underlining indicates a 4′-oxymethylphosphonate modification). The sense strand of KRAS-446T/MOP contains SEQ ID NO: 15 (5′-[…]-3′), and the antisense strand of KRAS-446T/MOP contains SEQ ID NO: 16 (3′-[…]-5′, wherein underlining indicates a 4′-oxymethylphosphonate modification).

KRAS mRNA [5] = test: in vitro screen of KRAS DsiRNA constructs, KRAS mRNA expression in MIA PaCa2 cells; format: cell-based, human; settings: lipofectamine, 1 nM and 0.1 nM, 24 hours
Excerpt: A nucleic acid inhibitor molecule that targets the KRAS gene (KRAS1) was constructed. First, several 25/27-mer KRAS DsiRNAs (with no modifications except for three methyls on the 3′ end of the guide strand) were selected. These constructs were then converted into a nicked-tetraloop format, using the U/GG convention as 22-mers, such that bases came off the guide strand starting from the 5′ end. These DsiRNAs were screened in human pancreatic carcinoma (MIA PaCa2) cells in vitro using lipofectamine at 1 nM and 0.1 nM concentrations of each construct to determine the potency.

[6] = Pan02 tumors, continuous KRAS inhibition (10 mpk weekly x3), 24 hours after last dose
[7] = Pan02 tumors, single KRAS/LNP treatment 10 mg/kg, 24 hours after last dose
[8] = Pan02 tumors, gemcitabine treatment without KRAS/LNP

Compound: Cc1cccc(-c2nn3c(c2-c2ccnc4ccc(C(N)=O)cc24)CCC3)n1 [galunisertib]
- tumor growth inhibition (Pan02 tumors [1]; orally 75 mpk (BID×2/cycle) for 2 weeks, vs Vehicle): about 50%

Compound: KRAS1: tetraloop construct with 4′-oxymethylphosphonate at nucleotide 1 of the antisense strand; sense SEQ ID NO: 13, antisense SEQ ID NO: 14 (sense CUAAAUCAUUUGAAGAUAUAGCAGCCGAAAGGCUGC; antisense NAUAUCUUCAAAUGAUUUAGGG; tetraloop DsiRNA, 4'-oxymethylphosphonate on antisense 5'-terminal U, other modifications not given here)
- tumor growth (Pan02 tumors [1]; 10 mpk once a week for 3 weeks, i.v., vs Placebo/LNP): complete growth inhibition
- Axin2 mRNA (stromal activation marker) (Pan02 tumors [2]; [6]): slightly increased
- CSF3 mRNA (stromal activation marker) (Pan02 tumors [2]; [6]): slightly increased
- CXCL1 mRNA (Pan02 tumors [2]; [6]): down-regulation
- CXCL5 mRNA (Pan02 tumors [2]; [6]): down-regulation
- Cd8 mRNA (Pan02 tumors [2]; [6]): increased
- Cd274 (PD-L1) mRNA (Pan02 tumors [2]; [6]): increased
- FoxP3 mRNA (Pan02 tumors [2]; [6]): down-regulation
- ROBO1 mRNA (stromal activation marker) (Pan02 tumors [2]; [6]): slightly increased
- TGF-0 mRNA (stromal activation marker) (Pan02 tumors [2]; [6]): slightly increased
- CD8 mRNA expression level (Pan02 tumors [2]; [7]): unchanged
- CXCL1 mRNA expression level (Pan02 tumors [2]; [7]): significantly decreased
- FoxP3 mRNA expression level (Pan02 tumors [2]; [7]): significantly decreased
- CXCL1 mRNA levels (Pan02 tumors [2]; gemcitabine-resistant Pan02 tumors, single KRAS1 treatment): not brought down to baseline
- CD8 expression by immunohistochemistry (Pan02 tumors [3]): increased
- FoxP3 expression by immunohistochemistry (Pan02 tumors [3]): reduced
- Cd274 (PD-L1) mRNA levels (Cd274 (PD-L1) mRNA): increased
- KRAS knockdown (KRAS): 40-50%

Compound: Nc1ccn([C@@H]2O[C@H](CO)[C@@H](O)C2(F)F)c(=O)n1 [gemcitabine, reference compound]
- tumor growth, response to treatment (Pan02 tumors [1]; continuous gemcitabine treatment): became resistant
- CXCL1 mRNA levels (Pan02 tumors [2]; Pan02 tumors treated with gemcitabine until resistant): increased
- Axin2 mRNA (stromal activation marker) (Pan02 tumors [2]; [8]): lower
- ROBO1 mRNA (stromal activation marker) (Pan02 tumors [2]; [8]): lower
- TGF-β mRNA (stromal activation marker) (Pan02 tumors [2]; [8]): lower
- tumor growth, response to treatment (Panc1 tumors): responded nicely at the beginning, they became resistant after several rounds of treatment

Compound: KRAS-465T: KRAS tetraloop construct; sense strand SEQ ID NO: 13, antisense strand SEQ ID NO: 18 (sense CUAAAUCAUUUGAAGAUAUAGCAGCCGAAAGGCUGC; antisense UAUAUCUUCAAAUGAUUUAGGG; sense strand forms tetraloop hairpin, modification pattern not given here)
- KRAS mRNA expression, ranking in the tumor model screen (KRAS mRNA [4]): best two

Compound: KRAS-194: 25/27-mer KRAS DsiRNA; sense strand SEQ ID NO: 1, antisense strand SEQ ID NO: 2 (sense GGCCUGCUGAAAAUGACUGAAUATA; antisense UAUAUUCAGUCAUUUUCAGCAGGCCUC; Dicer-substrate siRNA, chemical modification pattern not given here)
- KRAS mRNA expression, ranking of potency in the in vitro screen (KRAS mRNA [5]): best three

Compound: KRAS-446T: KRAS tetraloop construct; sense strand SEQ ID NO: 15, antisense strand SEQ ID NO: 19 (sense GUAUUUGCCAUAAAUAAUAAGCAGCCGAAAGGCUGC; antisense UUAUUAUUUAUGGCAAAUACGG; sense strand forms tetraloop hairpin, modification pattern not given here)
- KRAS mRNA expression, ranking in the tumor model screen (KRAS mRNA [4]): best two

Compound: KRAS-446: 25/27-mer KRAS DsiRNA; sense strand SEQ ID NO: 5, antisense strand SEQ ID NO: 6 (sense GUAUUUGCCAUAAAUAAUACUAAAT; antisense AUUUAGUAUUAUUUAUGGCAAAUACAC; Dicer-substrate siRNA, chemical modification pattern not given here)
- KRAS mRNA expression, ranking of potency in the in vitro screen (KRAS mRNA [5]): best three

Compound: KRAS-465: 25/27-mer KRAS DsiRNA; sense strand SEQ ID NO: 3, antisense strand SEQ ID NO: 4 (sense CUAAAUCAUUUGAAGAUAUUCACCA; antisense UGGUGAAUAUCUUCAAAUGAUUUAGUA; Dicer-substrate siRNA, chemical modification pattern not given here)
- KRAS mRNA expression, ranking of potency in the in vitro screen (KRAS mRNA [5]): best three
